19 compounds from patent US9481654B2, “Compositions and methods for inhibition of the JAK pathway” (Rigel Pharmaceuticals, Inc., priority 2006, dated 2016) can be followed below.

Broadly, the IC50 is the concentration at which inhibition is half-maximal. Low values mean higher potency, high ones lower potency.

Holding throughout (type): cell-based
In experiment [1] the test system is IL-4 stimulated CD23 upregulation in human Ramos B cells (JAK-1/JAK-3, Stat-6). Briefly: Assay for Ramos B-Cell Line Stimulated with IL-4 (CD23 upregulation, FACS). The note with it: Table III Example 3. The essentials:
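Log-phase Ramos B cells (5×10^4 per point, RPMI with 5% serum) pre-incubated with compound or DMSO 1 h at 37° C, then stimulated with IL-4 at 50 units/mL final for 20-24 h. CD23 upregulation measured by staining and flow cytometry.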

For experiment [2], the system named is primary human T-cells (IL-2 induced proliferation, JAK-1/JAK-3, Stat-5). In words: Primary Human T-Cell Proliferation Assay Stimulated with IL-2 (CellTiter-Glo). The note with it: Table III Example 4. The essentials: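 Pre-activated peripheral-blood T-cells (TCR/CD28 stimulated, IL-2-maintained) were IL-2-depleted, then plated in Yssel's medium with 80 U/mL IL-2 in the cell suspension and compound in duplicate. Proliferation ran 72 h at 37 °C; viable cells quantified by CellTiter-Glo ATP luminescence, with IL-2-omitted wells as unstimulated control.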
(In general: Cellular ATP, detected with luciferase, serves as a proxy for viable cell number.)

The subject of experiment [3] is IFNγ induced ICAM-1 (CD54) up-regulation in U937 human monocytic cells (JAK/Stat pathway). In words: U937 IFNγ ICAM1 FACS Assay. The note with it: Table III Example 6, 10 ng/mL IFNγ, 18-24 hours. The text has this: A549 lung epithelial cells and U937 cells up-regulate ICAM-1 (CD54) surface expression in response to a variety of different stimuli. Therefore, using ICAM-1 expression as readout, test compound effects on different signaling pathways can be assessed in the same cell type. Stimulation with IL-1β through the IL-1β receptor activates the TRAF6/NFκB pathway resulting in up-regulation of ICAM-1. IFNγ induces ICAM-1 up-regulation through activation of the JAK1/JAK2 pathway. The up-regulation of ICAM-1 can be quantified by flow cytometry across a compound dose curve and EC50 values are calculated. Exemplary assays of this type are described in greater detail in Examples 5 and 6. U937 human monocytic cells up-regulate ICAM-1 (CD54) surface expression in response to a variety of different stimuli. Therefore, using ICAM-1 expression as readout, compound effects on different signaling pathways can be assessed in the same cell type. IFNγ up-regulates ICAM-1 through activation of the JAK/Stat pathway. In this example, the up-regulation of ICAM-1 by IFNγ was assessed. […] The cells were then plated at a concentration of 100,000 cells per 160 μL in 96 well flat bottom plates. The test compounds were then diluted as follows: 10 mM test compound was diluted 1:5 in DMSO (3 μL 10 mM test compound in 12 μL DMSO), followed by a 1:3 serial dilution of test compound in DMSO (6 μL test compound serially diluted into 12 μL DMSO to give 3-fold dilutions). […] For control wells, 4 μL of DMSO was diluted into 76 μL 10% RPMI. […] The cells and compounds were then pre-incubated for 30 minutes at 37° C. with 5% CO2. […] The cells were kept under conditions for stimulation for 18-24 hours at 37° C. with 5% CO2. […] Cells were spun down at 1000 rpm for 5 minutes at 4° C., following which the supernatant was removed. […] The cells were then incubated on ice in the dark for 30 minutes. […] After suspension, the cells were centrifuged at 1000 rpm for 5 min at 4° C. […] Detection was performed using a BD LSR I System Flow Cytometer, purchased from BD Biosciences of San Jose, Calif. The live cells were gated for live scatter and the geometric mean of ICAM-APC was measured (Becton-Dickinson CellQuest software version 3.3, Franklin Lakes, N.J.). Both % live cells and ICAM-1 expression was analyzed. The assays for the test compounds were carried out in parallel with a control compound of known activity.

For the compound `CCCN(Cc1ccc(Nc2nc(Nc3ccc(C)c(S(N)(=O)=O)c3)ncc2C)cc1)S(=O)(=O)C1CC1` [Compound I-81, N2-(3-aminosulfonyl-4-methyl)phenyl-N4-[4-(N-cyclopropylsulfonyl-N-propylamino)methyl]phenyl-5-methyl-2,4-pyrimidinediamine], the IC50 in experiment [1] was 73.6 nM; in experiment [2], 89.2 nM; in experiment [3] it was 215 nM.
On the same counts, the results for `CCS(=O)(=O)NCc1ccc(Nc2nc(Nc3cccc(S(N)(=O)=O)c3)ncc2F)cc1` [Compound I-9, N2-(3-aminosulfonyl)phenyl-N4-(4-ethylsulfonylaminomethyl)phenyl-5-fluoro-2,4-pyrimidinediamine] are 80.1 nM, 70.2 nM and 993 nM.
On the same counts, the results for `CCS(=O)(=O)NCc1ccc(Nc2nc(Nc3ccc(S(N)(=O)=O)cc3)ncc2C)cc1` [Compound I-20, N2-(4-aminosulfonyl)phenyl-N4-(4-ethylsulfonylaminomethyl)phenyl-5-methyl-2,4-pyrimidinediamine] are 73.6 nM, 46.1 nM and 621 nM.
The like results for `CCS(=O)(=O)NCCc1ccc(Nc2nc(Nc3cccc(S(N)(=O)=O)c3)ncc2F)cc1` [Compound I-15, N2-(3-aminosulfonyl)phenyl-N4-[4-(2-ethylsulfonylamino)ethyl]phenyl-5-fluoro-2,4-pyrimidinediamine] were, in that order, 65.8 nM, 184 nM and 3110 nM.
On to `COCCNS(=O)(=O)c1ccc(Nc2ncc(C)c(Nc3ccc(CNS(=O)(=O)C4CC4)cc3)n2)cc1` [Compound I-183, N4-(4-cyclopropylsulfonylaminomethyl)phenyl-N2-[4-(2-methoxyethyl)aminosulfonyl]phenyl-5-methyl-2,4-pyrimidinediamine], for which the IC50 is 66.7 nM in experiment [1], 155 nM in experiment [2] and 207 nM in experiment [3].
On to `Cc1ccc(Nc2ncc(C)c(Nc3cccc(CNS(=O)(=O)C4CC4)c3)n2)cc1S(=O)(=O)NCC1CC1` [Compound I-216, N2-(3-cyclopropylmethylaminosulfonyl-4-methyl)phenyl-N4-(3-cyclopropylsulfonylaminomethyl)phenyl-5-methyl-2,4-pyrimidinediamine], for which the IC50 in experiment [1] came to 161 nM; in experiment [2] it was 154 nM; in experiment [3], 590 nM.
As to `CCNS(=O)(=O)c1cc(Nc2ncc(C)c(Nc3cccc(CNS(=O)(=O)C4CC4)c3)n2)ccc1C` [Compound I-213, N4-(3-cyclopropylsulfonylaminomethyl)phenyl-N2-(3-ethylaminosulfonyl-4-methyl)phenyl-5-methyl-2,4-pyrimidinediamine], the IC50 in experiment [1] is 88.2 nM; in experiment [2], 91.8 nM; in experiment [3], 125 nM.
On the same counts, the results for `CCCN(Cc1ccc(Nc2nc(Nc3cccc(S(N)(=O)=O)c3)ncc2F)cc1)S(=O)(=O)CC` [Compound I-18, N2-(3-aminosulfonyl)phenyl-N4-[4-(N-ethylsulfonyl-N-propylamino)methyl]phenyl-5-fluoro-2,4-pyrimidinediamine] are 107 nM, 272 nM and 1290 nM.
On the same counts, the results for `CCNS(=O)(=O)c1ccc(Nc2ncc(C)c(Nc3cccc(CNS(=O)(=O)C4CC4)c3)n2)cc1` [Compound I-212, N4-(3-cyclopropylsulfonylaminomethyl)phenyl-N2-(4-ethylaminosulfonyl)phenyl-5-methyl-2,4-pyrimidinediamine] are 236 nM, 160 nM and 215 nM.
Consider `C#CCNS(=O)(=O)Cc1cccc(Nc2nc(Nc3cccc(S(N)(=O)=O)c3)ncc2F)c1` [Compound I-3, N2-(3-Aminosulfonylphenyl)-5-fluoro-N4-[3-(prop-2-ynylaminosulfonylmethyl)phenyl]-2,4-pyrimidinediamine], for which the IC50 stood at 227 nM in experiment [1] (Homo sapiens, Ramos); 458 nM in experiment [2] (Homo sapiens, T-cell); 4530 nM in experiment [3] (Homo sapiens, U-937).
As for `CCS(=O)(=O)NCc1ccc(Nc2nc(Nc3ccc(C)c(S(N)(=O)=O)c3)ncc2C)cc1` [Compound I-22, N2-(3-aminosulfonyl-4-methyl)phenyl-N4-(4-ethylsulfonylaminomethyl)phenyl-5-methyl-2,4-pyrimidinediamine], the IC50 in experiment [1] is 25.9 nM; in experiment [2], 82.2 nM; in experiment [3], 207 nM.
Take `CC(C)S(=O)(=O)NCc1ccc(Nc2nc(Nc3cccc(S(N)(=O)=O)c3)ncc2F)cc1` [Compound I-66, N2-(3-aminosulfonyl)phenyl-5-fluoro-N4-(4-isopropylsulfonylaminomethyl)phenyl-2,4-pyrimidinediamine]: the values for the IC50 in experiment [1], in experiment [2] and in experiment [3] were 69.4 nM, 65 nM and 472 nM, respectively.
On the same counts, the results for `Cc1cnc(Nc2ccc(S(N)(=O)=O)cc2)nc1Nc1ccc(CNS(=O)(=O)C2CC2)c(Cl)c1` [Compound I-129, N2-(4-aminosulfonyl)phenyl-N4-(3-chloro-4-cyclopropylsulfonylaminomethyl)phenyl-5-methyl-2,4-pyrimidinediamine] are 161 nM, 432 nM and 2510 nM.
The like results for `Cc1cnc(Nc2cccc(S(=O)(=O)NCc3ccncc3)c2)nc1Nc1ccc(CNS(=O)(=O)C2CC2)cc1` [Compound I-169, N4-(4-cyclopropylsulfonylaminomethyl)phenyl-5-methyl-N2-[3-(4-pyridylmethyl)aminosulfonyl]phenyl-2,4-pyrimidinediamine] were, in that order, 140 nM, 206 nM and 478 nM.
On the same counts, the results for `NS(=O)(=O)c1cccc(Nc2ncc(F)c(Nc3ccc(CNS(=O)(=O)C4CC4)cc3)n2)c1` [Compound I-24, N2-(3-aminosulfonyl)phenyl-N4-(4-cyclopropylsulfonylaminomethyl)phenyl-5-fluoro-2,4-pyrimidinediamine] are 59.2 nM, 32 nM and 508 nM.
In the case of `Cc1cnc(Nc2ccc(S(=O)(=O)NCC3CC3)cc2)nc1Nc1ccc(CNS(=O)(=O)C2CC2)cc1` [Compound I-179, N2-(4-cyclopropylmethylaminosulfonyl)phenyl-N4-(4-cyclopropylsulfonylaminomethyl)phenyl-5-methyl-2,4-pyrimidinediamine], the IC50 was determined as 45.9 nM in experiment [1], 290 nM in experiment [2] and 365 nM in experiment [3].
The like results for `CCS(=O)(=O)N[C@H](C)c1ccc(Nc2nc(Nc3ccc(C)c(S(N)(=O)=O)c3)ncc2F)cc1` [Compound I-31, N2-(3-aminosulfonyl-4-methyl)phenyl-N4-[4-(1R-ethylsulfonylamino)ethyl]phenyl-5-fluoro-2,4-pyrimidinediamine] were, in that order, 104 nM, 283 nM and 1020 nM.
As for `CCS(=O)(=O)NCCc1ccc(Nc2nc(Nc3ccc(S(N)(=O)=O)cc3)ncc2C)cc1` [Compound I-38, N2-(4-aminosulfonyl)phenyl-N4-[4-(2-ethylsulfonylamino)ethyl]phenyl-5-methyl-2,4-pyrimidinediamine], the IC50 was determined as 122 nM in experiment [1], 190 nM in experiment [2] and 855 nM in experiment [3].
On the same counts, the results for `Cc1ccc(Nc2ncc(F)c(Nc3ccc(CNS(=O)(=O)c4cccnc4)cc3)n2)cc1S(N)(=O)=O` [Compound I-90, N2-(3-aminosulfonyl-4-methyl)phenyl-5-fluoro-N4-[4-(pyrid-3-yl)sulfonylaminomethyl]phenyl-2,4-pyrimidinediamine] are 152 nM, 349 nM and 2430 nM.
